Measurements as given in ChEMBL document CHEMBL1141717, “New functionalized 1,2,4-trioxepanes: synthesis and antimalarial activity against multi-drug resistant P. yoelii in mice” (2008).
The source made the active and inactive calls. No cut-off for these calls is given here.

Columns and labels:
[1] = tested on: Plasmodium yoelii nigeriensis; test: Antimalarial activity as reduced parasitaemia against multidrug-resistant Plasmodium yoelii nigeriensis infected Swiss mice (Mus musculus) at 96 mg/kg intramuscular dose at day 4; assay type: functional; set-up: scale not given: the % may be the effect or the level left
[2] = tested on: Plasmodium yoelii nigeriensis; test: Antimalarial activity as reduced parasitaemia against multidrug-resistant Plasmodium yoelii nigeriensis infected Swiss mice (Mus musculus) at 96 mg/kg peroral dose at day 28; assay type: functional; set-up: scale not given: the % may be the effect or the level left; conditions: route oral
[3] = tested on: Plasmodium yoelii nigeriensis; test: Antimalarial activity as survivor numbers against multidrug-resistant Plasmodium yoelii nigeriensis infected Swiss mice (Mus musculus) at 96 mg/kg intramuscular dose at day 28; assay type: functional, organism-based; set-up: dose 96 mg/kg
[4] = tested on: Plasmodium yoelii nigeriensis; test: Antimalarial activity as reduced parasitaemia against multidrug-resistant Plasmodium yoelii nigeriensis infected Swiss mice (Mus musculus) at 96mg/kg peroral dose at day 4; assay type: functional; set-up: scale not given: the % may be the effect or the level left
[5] = tested on: Plasmodium yoelii nigeriensis; test: Antimalarial activity as survivor numbers against multidrug-resistant Plasmodium yoelii nigeriensis infected Swiss mice (Mus musculus) at 96 mg/kg peroral dose at day 28; assay type: functional, organism-based; set-up: dose 96 mg/kg
[6] = tested on: Plasmodium yoelii nigeriensis; test: Antimalarial activity as survivor numbers against multidrug-resistant Plasmodium yoelii nigeriensis infected Swiss mice (Mus musculus) at 48 mg/kg peroral dose at day 28; assay type: functional, organism-based; set-up: dose 48 mg/kg
[7] = tested on: Plasmodium yoelii nigeriensis; test: Antimalarial activity as reduced parasitaemia against multidrug-resistant Plasmodium yoelii nigeriensis infected Swiss mice (Mus musculus) at 48 mg/kg peroral dose at day 4; assay type: functional; set-up: scale not given: the % may be the effect or the level left; conditions: route oral

Structure (SMILES) | Activity [1] | Activity [2] | Activity [3] | Activity [4] | Activity [5] | Activity [6] | Activity [7]
C=C(c1ccccc1)C1CCOC2(CCC(Nc3ccc(C(F)(F)F)cc3)CC2)OO1 (mixture of isomers) | 24.32% | 40% | inactive | 100% |  |  | 
C=C(c1ccc(-c2ccccc2)cc1)C1CCOC2(CCC(=CC(=O)OCC)CC2)OO1 (mixture of isomers) | 35.32% |  | inactive | 95.18% | inactive |  | 
C=C(c1ccccc1)C1CCOC2(CCC(Nc3ccc(F)cc3)CC2)OO1 (mixture of isomers) | 50% |  | inactive | 63.18% | inactive |  | 
C=C(c1ccc(-c2ccccc2)cc1)C1CCOC2(CCC(Nc3ccc(C(F)(F)F)cc3)CC2)OO1 (mixture of isomers) | 75.84% |  | inactive | 68.3% | inactive |  | 
C=C(c1ccc(Cl)cc1)C1CCOC2(CCC(Nc3ccccc3)CC2)OO1 (mixture of isomers) | 32.07% |  | inactive | 98.49% | inactive |  | 
CCO[C@H]1O[C@@H]2O[C@@]3(C)CC[C@H]4[C@H](C)CC[C@@H]([C@H]1C)[C@@]24OO3 [ARTEMOTIL] |  |  |  |  |  | Active | 100%
C=C(c1ccc(Cl)cc1)C1CCOC2(CCC(Nc3ccc(F)cc3)CC2)OO1 (mixture of isomers) | 58.37% |  | inactive | 41.51% | inactive |  | 
C=C(c1ccc(-c2ccccc2)cc1)C1CCOC2(CCC(Nc3ccc(F)cc3)CC2)OO1 (mixture of isomers) | 57.69% |  | inactive | 98.08% | inactive |  | 
C=C(c1ccc(Cl)cc1)C1CCOC2(CCC(Nc3ccc(C(F)(F)F)cc3)CC2)OO1 (mixture of isomers) | 73.36% |  | inactive | 87.17% | inactive |  | 
C=C(c1ccc(Cl)cc1)C1CCOC2(CCC(=CC(=O)OCC)CC2)OO1 (mixture of isomers) | 41.11% |  | inactive | 85.87% | inactive |  | 
C=C(c1ccccc1)C1CCOC2(CCC(=CC(=O)OCC)CC2)OO1 (mixture of isomers) | 43.58% |  | inactive | 88.76% | inactive |  | 
C=C(c1ccccc1)C1CCOC2(CCC(Nc3ccccc3)CC2)OO1 (mixture of isomers) | 75.47% |  | inactive | 78.58% | inactive |  | 
C=C(c1ccc(-c2ccccc2)cc1)C1CCOC2(CCC(Nc3ccccc3)CC2)OO1 (mixture of isomers) | 99.01% | 75% | inactive | 100% |  |  | 
